In US4965280A, “Antifungal carbinols” (E. I. Du Pont de Nemours and Company, priority 1989, dated 1990):

Tests used:
Experiment in all cases: Test E
BLACK NIGHTSHAD = assay type: in vivo, Solanum nigrum
KOCHIA = assay type: in vivo, Kochia scoparia
SNTLS CHAMOMILE = assay type: in vivo, Matricaria indora
PERSN SPEEDWELL = assay type: in vivo, Veronica persica
REDROOT PIGWEED = assay type: in vivo, Amaranthus retroflexus
CTCHWD BEDSTRAW = assay type: in vivo, Galium aparine
WILD OATS = assay type: in vivo, Avena fatua
ITALN. RYEGRASS = assay type: in vivo, Lolium multiflorum
MUSTARD SPP. = assay type: in vivo, Brassica spp.
PARK WHEAT = assay type: in vivo, Triticum aestivum cv. Park

Q: What does the source list for C=C(c1ccccc1)C(O)(Cn1cncn1)c1ccc(F)cc1F (centres unmarked) [Example 52, 2-(2,4-Difluorophenyl)-3-phenyl-1-(1H-1,2,4-triazol-1-yl)-3-buten-2-ol]?
A: plant response (BLACK NIGHTSHAD; POSTEMERGENCE 0064 GM/HA): 0%; plant response (BLACK NIGHTSHAD; POSTEMERGENCE 0125 GM/HA): 0%; plant response (BLACK NIGHTSHAD; POSTEMERGENCE 0250 GM/HA): 10%; plant response (BLACK NIGHTSHAD; POSTEMERGENCE 0500 GM/HA): 70%; plant response (BLACK NIGHTSHAD; PREEMERGENCE 0250 GM/HA): 100%; plant response (KOCHIA; POSTEMERGENCE 0064 GM/HA): 0%; plant response (KOCHIA; POSTEMERGENCE 0125 GM/HA): 0%; plant response (KOCHIA; POSTEMERGENCE 0250 GM/HA): 0%; plant response (KOCHIA; POSTEMERGENCE 0500 GM/HA): 70%; plant response (KOCHIA; PREEMERGENCE 0250 GM/HA): 0%; plant response (SNTLS CHAMOMILE; POSTEMERGENCE 0064 GM/HA): 20%; plant response (SNTLS CHAMOMILE; POSTEMERGENCE 0125 GM/HA): 50%; plant response (SNTLS CHAMOMILE; POSTEMERGENCE 0250 GM/HA): 50%; plant response (SNTLS CHAMOMILE; POSTEMERGENCE 0500 GM/HA): 85%; plant response (SNTLS CHAMOMILE; PREEMERGENCE 0250 GM/HA): 100%; plant response (PERSN SPEEDWELL; POSTEMERGENCE 0064 GM/HA): 40%; plant response (PERSN SPEEDWELL; POSTEMERGENCE 0125 GM/HA): 30%; plant response (PERSN SPEEDWELL; POSTEMERGENCE 0250 GM/HA): 60%; plant response (PERSN SPEEDWELL; POSTEMERGENCE 0500 GM/HA): 90%; plant response (PERSN SPEEDWELL; PREEMERGENCE 0250 GM/HA): 100%; plant response (REDROOT PIGWEED; POSTEMERGENCE 0064 GM/HA): 0%; plant response (REDROOT PIGWEED; POSTEMERGENCE 0125 GM/HA): 50%; plant response (REDROOT PIGWEED; POSTEMERGENCE 0250 GM/HA): 90%; plant response (REDROOT PIGWEED; POSTEMERGENCE 0500 GM/HA): 90%; plant response (REDROOT PIGWEED; PREEMERGENCE 0250 GM/HA): 100%; plant response (CTCHWD BEDSTRAW; POSTEMERGENCE 0064 GM/HA): 20%; plant response (CTCHWD BEDSTRAW; POSTEMERGENCE 0125 GM/HA): 80%; plant response (CTCHWD BEDSTRAW; POSTEMERGENCE 0250 GM/HA): 70%; plant response (CTCHWD BEDSTRAW; POSTEMERGENCE 0500 GM/HA): 100%; plant response (CTCHWD BEDSTRAW; PREEMERGENCE 0250 GM/HA): 100%; plant response (WILD OATS; POSTEMERGENCE 0064 GM/HA): 0%; plant response (WILD OATS; POSTEMERGENCE 0125 GM/HA): 0%; plant response (WILD OATS; POSTEMERGENCE 0250 GM/HA): 20%; plant response (WILD OATS; POSTEMERGENCE 0500 GM/HA): 30%; plant response (WILD OATS; PREEMERGENCE 0250 GM/HA): 70%; plant response (ITALN. RYEGRASS; POSTEMERGENCE 0064 GM/HA): 0%; plant response (ITALN. RYEGRASS; POSTEMERGENCE 0125 GM/HA): 20%; plant response (ITALN. RYEGRASS; POSTEMERGENCE 0250 GM/HA): 50%; plant response (ITALN. RYEGRASS; POSTEMERGENCE 0500 GM/HA): 80%; plant response (ITALN. RYEGRASS; PREEMERGENCE 0250 GM/HA): 70%; plant response (MUSTARD SPP.; POSTEMERGENCE 0064 GM/HA): 0%; plant response (MUSTARD SPP.; POSTEMERGENCE 0125 GM/HA): 0%; plant response (MUSTARD SPP.; POSTEMERGENCE 0250 GM/HA): 20%; plant response (MUSTARD SPP.; POSTEMERGENCE 0500 GM/HA): 50%; plant response (MUSTARD SPP.; PREEMERGENCE 0250 GM/HA): 50%; plant response (PARK WHEAT; POSTEMERGENCE 0064 GM/HA): 30%; plant response (PARK WHEAT; POSTEMERGENCE 0125 GM/HA): 30%; plant response (PARK WHEAT; POSTEMERGENCE 0250 GM/HA): 40%; plant response (PARK WHEAT; POSTEMERGENCE 0500 GM/HA): 50%; plant response (PARK WHEAT; PREEMERGENCE 0250 GM/HA): 70%
